Patent publication US6734310B2, “Fluorescent marker” (FEW Chemicals GmbH, priority 2000, dated 2004)

What was measured:
[1] = protein conjugate vs free dye; cited from earlier work
[2] = VIS spectra of dye after coupling to a protein (aggregation in the protein conjugate); conditions: FIG. 1

CC(C=CC1=[N+](CCCCCC(=O)O)c2ccc(S(=O)(=O)[O-])cc2C1(C)C)=C1N(CCCCCC(=O)O)c2ccc(S(=O)(=O)[O-])cc2C1(C)C.[Na+] [Example 3, 1-(5-carboxypentyl)-2-[3-(1,3-dihydro-1-(5-carboxypentyl)-3,3-dimethyl-5-sulpho-2H-indole-2-ylidene)-3-methylprop-1-enyl]-3,3-dimethyl-5-sulpho-3H-indolium Hydroxide, Inner Salt, Sodium Salt]
decrease of fluorescence quantum yield of the protein conjugate compared with free, unconjugated dye [1]: around ¼

CC(C=CC1=[N+](CCCCCC(=O)O)c2ccc(S(=O)(=O)[O-])cc2C1(C)C)=CC=C1N(CCCCCC(=O)O)c2ccc(S(=O)(=O)[O-])cc2C1(C)C.[Na+] [Example 1, 1-(5-carboxypentyl)-2-[5-(l-(5-carboxypentyl)-1,3-dihydro-3,3-dimethyl-5-sulpho-2H-indole-2-ylidene)-3-methylpenta-1,3-dienyl]-3,3-dimethyl-5-sulpho-3H-indolium-inner Salt, Sodium Salt]
VIS spectrum curve shape (monomer / dimer band) [2]: typical curve shape for a monomer
